Each compound was assayed against Human Factor D (Homo sapiens (Human), UniProt P00746) (assay: Human Factor D Assay). Conditions: Human Factor D 80 nM, substrate Z-L-Lys-SBzl, assay according to Example 3.
Type: biochemical
Experimental: The assay according to Example 3 was used to determine the IC50's of the compounds. Other standard factor D inhibition assays are also available.
Human Factor D (purified from human serum, Complement Technology, Inc.) at 80 nM final concentration is incubated with test compound at various concentrations for 5 min at room temperature in 50 mM Tris, 1M NaCl, pH 7.5. A synthetic substrate Z-L-Lys-SBzl and DTNB (Ellman's reagent) are added to final concentrations of 100 μM each. Absorbance at 405 nm (A405) is recorded at 30 second intervals for 30 min using a microplate spectrophotometer. IC50 values are calculated by nonlinear regression of complement Factor D reaction rates as a function of test compound concentration.

Human Factor D, sequence (P00746 26-253): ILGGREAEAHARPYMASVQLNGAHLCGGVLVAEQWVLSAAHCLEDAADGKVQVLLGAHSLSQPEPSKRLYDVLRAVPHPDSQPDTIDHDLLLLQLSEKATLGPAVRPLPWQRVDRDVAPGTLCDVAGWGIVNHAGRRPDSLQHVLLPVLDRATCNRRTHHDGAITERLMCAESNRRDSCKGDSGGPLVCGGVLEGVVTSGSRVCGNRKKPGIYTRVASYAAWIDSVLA

| Structure (SMILES) | IC50 [µM] |
| --- | --- |
| CC(=O)c1nn(CC(=O)N2[C@H](C(=O)Nc3nc(Br)c(F)cc3C)C[C@@]3(C)C[C@@H]23)c2c(C)cc(-c3cnc([C@H](C)O)nc3)cc12 [Compound 17, (1R,3S,5R)-2-(2-(3-acetyl-5-(2-((S)-1-hydroxyethyl)-pyrimidin-5-yl)-7-methyl-1H-indazol-1-yl)acetyl)-N-(6-bromo-5-fluoro-3-meth-ylpyridin-2-yl)-5-methyl-2-azabicyclo[3.1.0]hexane-3-carboxamide] | < 1 |
| CC(=O)c1nn(CC(=O)N2[C@H](C(=O)Nc3nc(Br)c(F)cc3C)C[C@@]3(C)C[C@@H]23)c2c(C)cc(-c3cnc([C@@H](C)O)nc3)cc12 [Compound 18, (1R,3S,5R)-2-(2-(3-acetyl-5-(2-((R)-1-hydroxyethyl)-pyrimidin-5-yl)-7-methyl-1H-indazol-1-yl)acetyl)-N-(6-bromo-5-fluoro-3-meth-ylpyridin-2-yl)-5-methyl-2-azabicyclo[3.1.0]hexane-3-carboxamide] | < 1 |
| CC(=O)c1cn(CC(=O)N2[C@H](C(=O)Nc3nc(C(F)(F)F)c(F)cc3C)C[C@@]3(C)C[C@@H]23)c2c(C)cc(-c3ccc4nc(C)nn4c3)cc12 [Compound 19, (1R,3S,5R)-2-(2-(3-acetyl-7-methyl-5-(2-methyl-[1,2,4]triazolo[1,5-a]pyr-idin-6-yl)-1H-indol-1-yl)-acetyl)-N-(5-fluoro-3-methyl-6-(trifluorometh-yl)pyridin-2-yl)-5-methyl-2-azabicyclo[3.1.0]hexane-3-carboxamide] | < 1 |
| CC(=O)c1cn(CC(=O)N2[C@H](C(=O)Nc3nc(Br)ccc3C)C[C@@]3(C)C[C@@H]23)c2cc3c(cc12)NC1(COC1)CO3 [Compound 20, (1R,3S,5R)-2-(2-(8′-acetyl-1′H-spiro[oxetane-3,2′-[1,4]oxazino[3,2-f]indol]-6′(3′H)-yl)acetyl)-N-(6-bromo-3-methylpyridin-2-yl)-5-methyl-2-azabicyclo [3.1.0]hexane-3-carbox-amide] | < 1 |
| CC(=O)c1cn(CC(=O)N2[C@H](C(=O)Nc3nc(Br)ccc3Cl)C[C@@]3(C)C[C@@H]23)c2c(C)nc(-c3cnc(C)nc3)cc12 [Compound 21, (1R,3S,5R)-2-(2-(3-acetyl-7-methyl-5-(2-methylpyr-imidin-5-yl)-1H-pyrrolo [2,3-c]pyridin-1-yl)acetyl)-N-(6-bromo-3-chloropyr-idin-2-yl)-5-methyl-2-aza-bicyclo[3.1.0]hexane-3-carboxamide] | < 1 |
| CC(=O)c1cn(CC(=O)N2[C@H](C(=O)Nc3nc(C(F)(F)F)ccc3C)C[C@@]3(C)C[C@@H]23)c2c(C)cc(-c3ccc4nc(C#N)nn4c3)cc12 [Compound 22, (1R,3S,5R)-2-(2-(3-acetyl-5-(2-cyano-[1,2,4]triazolo [1,5-a]pyridin-6-yl)-7-methyl-1H-indol-1-yl)acet-yl)-5-methyl-N-(3-methyl-6-(trifluoromethyl)pyridin-2-yl)-2-azabicyclo[3.1.0] hexane-3-carboxamide] | < 1 |
| CC(=O)c1cn(CC(=O)N2[C@H](C(=O)Nc3nc(C(F)(F)F)ccc3C#N)C[C@@]3(C)C[C@@H]23)c2c(C)nc(-c3cnc4cc(C)nn4c3)cc12 [Compound 23, (1R,3S,5R)-2-(2-(3-acetyl-7-methyl-5-(2-methylpyr-azolo[1,5-a]pyrimidin-6-yl)-1H-pyrrolo[2,3-c]pyr-idin-1-yl)acetyl)-N-(3-cyano-6-(trifluoromethyl)-pyridin-2-yl)-5-methyl-2-azabicyclo[3.1.0]hexane-3-carboxamide] | < 1 |
| CC(=O)c1cn(CC(=O)N2[C@H](C(=O)Nc3nc(C(F)(F)F)ccc3Cl)C[C@@]3(C)C[C@@H]23)c2c(C)nc(-c3cnc4cc(C)nn4c3)cc12 [Compound 24, (1R,3S,5R)-2-(2-(3-acetyl-7-methyl-5-(2-methylpyr-azolo[1,5-a]pyrimidin-6-yl)-1H-pyrrolo[2,3-c]pyr-idin-1-yl)acetyl)-N-(3-chloro-6-(trifluoromethyl)-pyridin-2-yl)-5-methyl-2-azabicyclo[3.1.0]hexane-3-carboxamide] | < 1 |
| CC(=O)c1cn(CC(=O)N2C[C@@](F)(CF)C[C@H]2C(=O)Nc2nc(C(F)(F)F)ccc2C)c2c(C)nc(-c3cnc4cc(C)nn4c3)cc12 [Compound 25, (2S,4R)-1-(2-(3-acetyl-7-methyl-5-(2-methylpyr-azolo[1,5-a]pyrimidin-6-yl)-1H-pyrrolo[2,3-c]pyr-idin-1-yl)acetyl)-4-fluoro-4-(fluoromethyl)-N-(3-methyl-6-(trifluorometh-yl)pyridin-2-yl)pyrroli-dine-2-carboxamide] | < 1 |
| CC(=O)c1cn(CC(=O)N2[C@H](C(=O)Nc3nc(Br)ccc3C)C[C@@]3(C)C[C@@H]23)c2ccc(NC3(C)COC3)cc12 [Compound 26, (1R,3S,5R)-2-(2-(3-acetyl-5-((3-methyloxetan-3-yl)-amino)-1H-indol-1-yl)-acetyl)-N-(6-bromo-3-methylpyridin-2-yl)-5-methyl-2-azabicyclo[3.1.0] hexane-3-carboxamide] | < 1 |
| CC(=O)c1cn(CC(=O)N2[C@H](C(=O)N[C@H](C)C(F)=C(C)C)C[C@@]3(C)C[C@@H]23)c2c(C)cc(-c3cnc4cc(C)nn4c3)cc12 [Compound 27, (1R,3S,5R)-2-(2-(3-acetyl-7-methyl-5-(2-methylpyr-azolo[1,5-a]pyrimidin-6-yl)-1H-indol-1-yl)acetyl)-N-((R)-3-fluoro-4-methyl-pent-3-en-2-yl)-5-methyl-2-azabicyclo[3.1.0]hexane-3-carboxamide] | < 1 |
| CC(=O)c1cn(CC(=O)N2[C@H](C(=O)N[C@H](C)C(F)=C(C)C)C[C@@]3(C)C[C@@H]23)c2c(C)cc(-c3cnc(C)nc3)cc12 [Compound 28, (1R,3S,5R)-2-(2-(3-acetyl-7-methyl-5-(2-methylpyr-imidin-5-yl)-1H-indol-1-yl)acetyl)-N-((R)-3-fluoro-4-methylpent-3-en-2-yl)-5-methyl-2-azabicyclo[3.1.0] hexane-3-carboxamide] | < 1 |
| CC(=O)c1cn(CC(=O)N2[C@H](C(=O)N[C@H](C)C(F)=C(C)C)C[C@@]3(C)C[C@@H]23)c2c(C)nc(-c3cnc4cc(C)nn4c3)cc12 [Compound 29, (1R,3S,5R)-2-(2-(3-acetyl-7-methyl-5-(2-methylpyr-azolo[1,5-a]pyrimidin-6-yl)-1H-pyrrolo[2,3-c]pyr-idin-1-yl)acetyl)-N-((R)-3-fluoro-4-methylpent-3-en-2-yl)-5-methyl-2-azabi-cyclo[3.1.0]hexane-3-car-boxamide] | < 1 |
| CC(=O)c1cn(CC(=O)N2[C@H](C(=O)N[C@@H](C)C(F)=C(C)C)C[C@@]3(C)C[C@@H]23)c2c(C)cc(-c3cnc4cc(C)nn4c3)cc12 [Compound 30, (1R,3S,5R)-2-(2-(3-acetyl-7-methyl-5-(2-methylpyr-azolo[1,5-a]pyrimidin-6-yl)-1H-indol-1-yl)acetyl)-N-((S)-3-fluoro-4-methyl-pent-3-en-2-yl)-5-methyl-2-azabicyclo[3.1.0]hexane-3-carboxamide] | < 1 |
| CC(=O)c1cn(CC(=O)N2[C@H](C(=O)N[C@@H](C)C(F)=C(C)C)C[C@@]3(C)C[C@@H]23)c2c(C)cc(-c3cnc(C)nc3)cc12 [Compound 31, (1R,3S,5R)-2-(2-(3-acetyl-7-methyl-5-(2-methylpyr-imidin-5-yl)-1H-indol-1-yl)acetyl)-N-((S)-3-fluoro-4-methylpent-3-en-2-yl)-5-methyl-2-azabicyclo[3.1.0] hexane-3-carboxamide] | < 1 |
| CC(=O)c1cn(CC(=O)N2[C@H](C(=O)N[C@@H](C)C(F)=C(C)C)C[C@@]3(C)C[C@@H]23)c2c(C)nc(-c3cnc4cc(C)nn4c3)cc12 [Compound 32, (1R,3S,5R)-2-(2-(3-acetyl-7-methyl-5-(2-methylpyr-azolo[1,5-a]pyrimidin-6-yl)-1H-pyrrolo[2,3-c]pyr-idin-1-yl)acetyl)-N-((S)-3-fluoro-4-methylpent-3-en-2-yl)-5-methyl-2-azabi-cyclo[3.1.0]hexane-3-car-boxamide] | < 1 |
| CC(=O)c1cn(CC(=O)N2C[C@@](F)(CF)CC2C(=O)Nc2nc(C(F)(F)F)ccc2C#N)c2c(C)nc(-c3cnc4cc(C)nn4c3)cc12 (stereo partly drawn) [Compound 33, (4R)-1-(2-(3-acetyl-7-methyl-5-(2-methylpyr-azolo[1,5-a]pyrimidin-6-yl)-1H-pyrrolo[2,3-c]pyr-idin-1-yl)acetyl)-N-(3-cyano-6-(trifluoromethyl)-pyridin-2-yl)-4-fluoro-4-(fluoromethyl)pyrrolidine-2-carboxamide] | < 1 |
| CC(=O)c1cn(CC(=O)N2C[C@H](F)C[C@H]2C(=O)N[C@H](C)C(F)=C(C)C)c2c(C)cc(-c3cnc4cc(C)nn4c3)cc12 [Compound 34, (2S,4R)-1-(2-(3-acetyl-7-methyl-5-(2-methylpyr-azolo[1,5-a]pyrimidin-6-yl)-1H-indol-1-yl)acetyl)-4-fluoro-N-((R)-3-fluoro-4-methylpent-3-en-2-yl)-pyrrolidine-2-carboxamide] | < 1 |
| CC(=O)c1cn(CC(=O)N2C[C@H]3C[C@H]3[C@H]2C(=O)N[C@H](C)C(F)=C(C)C)c2c(C)cc(-c3cnc4cc(C)nn4c3)cc12 [Compound 35, (1R,2S,5S)-3-(2-(3-acetyl-7-methyl-5-(2-methylpyr-azolo[1,5-a]pyrimidin-6-yl)-1H-indol-1-yl)acetyl)-N-((R)-3-fluoro-4-methyl-pent-3-en-2-yl)-3-azabi-cyclo[3.1.0]hexane-2-car-boxamide] | < 1 |
| CC(=O)c1cn(CC(=O)N2[C@H](C(=O)N[C@H](C)C(F)=C(C)C)C[C@@]3(C)C[C@@H]23)c2c(C)nc(-c3cnc(C)nc3)cc12 [Compound 36, (1R,3S,5R)-2-(2-(3-acetyl-7-methyl-5-(2-methylpyr-imidin-5-yl)-1H-pyrrolo [2,3-c]pyridin-1-yl)acetyl)-N-((R)-3-fluoro-4-methyl-pent-3-en-2-yl)-5-methyl-2-azabicyclo[3.1.0]hexane-3-carboxamide] | < 1 |

Reference: patent publication US20250197403A1, “HETEROARYL COMPOUNDS FOR TREATMENT OF COMPLEMENT FACTOR D MEDIATED DISORDERS” (Achillion Pharmaceuticals, Inc., priority 2020, published 2025)
